In patent US20230278972A1, “SUBSTITUTED HALOALKYL SULFONANILIDE HERBICIDES” (FMC Corporation, priority 2020, published 2023):
Read-outs that look alike come from different tables or passages of the source.

What was measured:
Format in all cases: in vivo
[1] = tested on: ragweed (common ragweed, Ambrosia artemisiifolia); experiment: Test A postemergence, ragweed; details: Ambrosia artemisiifolia, post-emergence, 240 h, Postemergence, 0 to 100 scale (0 no effect, 100 complete control); for pest or weed control at 125 g/ha: 125 g ai/ha, read-out: Plant response rating, Ragweed; for pest or weed control at 500 g/ha: 500 g ai/ha, visual injury vs untreated controls after approx. 10 days, read-out: Ragweed plant response rating
Summary of the method: (§1)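 After sowing into a sand-amended loam, pots for the preemergence test were treated by spraying directly onto soil. In parallel, seedlings at the one- to two-leaf stage and 2 to 10 cm tall were treated postemergence with the identical surfactant-containing formulation.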

[2] = tested on: corn (Zea mays); experiment: Test A postemergence, corn; details: Zea mays, post-emergence, 240 h, Postemergence, 0 to 100 scale (0 no effect, 100 complete control); for Corn plant response rating (crop injury, 0 = no effect, 100 = complete kill) at 125 g/ha: 125 g ai/ha; for plant injury at 500 g/ha: 500 g ai/ha, visual injury vs untreated controls after approx. 10 days, read-out: Corn plant response rating
Summary of the method: as §1

[3] = tested on: wheat (Triticum aestivum); experiment: Test A postemergence, wheat; details: Triticum aestivum, post-emergence, 240 h, Postemergence, 0 to 100 scale (0 no effect, 100 complete control); for plant injury at 125 g/ha: 125 g ai/ha, read-out: Plant response rating, Wheat; for plant injury at 500 g/ha: 500 g ai/ha, visual injury vs untreated controls after approx. 10 days, read-out: Wheat plant response rating
Summary of the method: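 Compounds in non-phytotoxic solvent with surfactant. Soil: loam/sand. Preemergence via directed soil spray after seeding; postemergence on seedlings 2–10 cm, one- to two-leaf.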

[4] = tested on: pigweed (Amaranthus retroflexus); experiment: Test A postemergence, pigweed; details: Amaranthus retroflexus, post-emergence, 240 h, Postemergence, 0 to 100 scale (0 no effect, 100 complete control); for pest or weed control at 125 g/ha: 125 g ai/ha, read-out: Plant response rating, Pigweed; for pest or weed control at 500 g/ha: 500 g ai/ha, visual injury vs untreated controls after approx. 10 days, read-out: Pigweed plant response rating
Summary of the method: as §1

SMILES | pest or weed control at 125 g/ha ([1]; visual injury approx. 10 days) | pest or weed control at 500 g/ha [1] | Corn plant response rating (crop injury, 0 = no effect, 100 = complete kill) at 125 g/ha ([2]; visual injury approx. 10 days) | plant injury at 500 g/ha [2] | plant injury at 125 g/ha ([3]; visual injury approx. 10 days) | plant injury at 500 g/ha [3] | pest or weed control at 125 g/ha ([4]; visual injury approx. 10 days) | pest or weed control at 500 g/ha [4] | pest or weed control at 125 g/ha [1] | Corn plant response rating (crop injury, 0 = no effect, 100 = complete kill) at 125 g/ha [2] | plant injury at 125 g/ha [3] | pest or weed control at 125 g/ha [4]
Cc1cc(C)c(C2=NOC3COCCC23)cc1NS(=O)(=O)C(F)(F)F (stereo not shown) [Compound 121, N-[2,4-Dimethyl-5-(3a,4,7,7a-tetrahydro-5H-pyrano[4,3-d]isoxazol-3-yl)phenyl]-1,1,1-trifluoromethanesulfonamide] | 90% | 90% | 50% | 80% | 60% | 70% | 70% | 90% |  |  |  | 
Cc1cc(C)c(C2=NOC3(CCCCC3)C2)cc1NS(=O)(=O)C(F)(F)F [Compound 197, N-[2,4-Dimethyl-5-(1-oxa-2-azaspiro[4.5]dec-2-en-3-yl)phenyl]-1,1,1-trifluoromethanesulfonamide] |  | 80% |  | 80% |  | 70% |  | 90% | 80% | 20% | 60% | 60%
